Assay results as given in ChEMBL document CHEMBL1201862, “PubChem BioAssay data set” (2004).
Several values for one entry are separate records, joined by “and”; a condition that tells them apart may be missing. Equal values may be shown once. Activity calls are given as the source filed them. Unless noted, no cut-off for these calls is given here.

Experiments:
Hexokinase HKDC1 = molecular target: T1, Hexokinase HKDC1 (Homo sapiens, UniProt Q2TB90); test: activation of HKDC1 glucose phosphorylation – biochemical, W721R variant, dose response (AID 504730); assay type: functional
T1 sequence (Q2TB90 whole entry): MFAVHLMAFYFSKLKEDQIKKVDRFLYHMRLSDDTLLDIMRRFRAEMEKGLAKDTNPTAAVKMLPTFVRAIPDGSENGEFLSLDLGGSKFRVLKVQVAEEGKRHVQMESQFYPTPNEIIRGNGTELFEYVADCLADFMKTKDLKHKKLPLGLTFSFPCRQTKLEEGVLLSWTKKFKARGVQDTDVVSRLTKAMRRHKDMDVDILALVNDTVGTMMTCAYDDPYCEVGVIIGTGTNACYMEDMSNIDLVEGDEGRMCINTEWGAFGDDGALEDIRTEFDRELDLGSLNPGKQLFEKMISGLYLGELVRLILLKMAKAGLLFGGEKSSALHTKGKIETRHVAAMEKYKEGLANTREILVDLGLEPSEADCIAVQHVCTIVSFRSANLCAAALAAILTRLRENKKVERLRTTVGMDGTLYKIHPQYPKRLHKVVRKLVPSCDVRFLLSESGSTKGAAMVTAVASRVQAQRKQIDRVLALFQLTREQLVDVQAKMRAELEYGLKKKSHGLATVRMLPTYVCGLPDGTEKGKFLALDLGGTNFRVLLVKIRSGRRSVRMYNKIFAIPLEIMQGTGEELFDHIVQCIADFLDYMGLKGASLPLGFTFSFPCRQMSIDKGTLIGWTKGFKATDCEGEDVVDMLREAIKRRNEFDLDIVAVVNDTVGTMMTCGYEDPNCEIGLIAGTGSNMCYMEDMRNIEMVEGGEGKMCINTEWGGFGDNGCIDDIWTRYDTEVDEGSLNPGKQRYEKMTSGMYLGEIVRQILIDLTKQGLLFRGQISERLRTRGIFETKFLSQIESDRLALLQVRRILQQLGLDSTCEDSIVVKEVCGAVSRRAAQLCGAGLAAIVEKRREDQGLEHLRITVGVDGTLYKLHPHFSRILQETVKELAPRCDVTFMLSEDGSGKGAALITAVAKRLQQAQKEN

fMet-Leu-Phe receptor = molecular target: T2, fMet-Leu-Phe receptor (Homo sapiens, UniProt P21462); test: formyl peptide receptor binders – dose response (AID 519); assay type: functional
T2 sequence (P21462 whole entry): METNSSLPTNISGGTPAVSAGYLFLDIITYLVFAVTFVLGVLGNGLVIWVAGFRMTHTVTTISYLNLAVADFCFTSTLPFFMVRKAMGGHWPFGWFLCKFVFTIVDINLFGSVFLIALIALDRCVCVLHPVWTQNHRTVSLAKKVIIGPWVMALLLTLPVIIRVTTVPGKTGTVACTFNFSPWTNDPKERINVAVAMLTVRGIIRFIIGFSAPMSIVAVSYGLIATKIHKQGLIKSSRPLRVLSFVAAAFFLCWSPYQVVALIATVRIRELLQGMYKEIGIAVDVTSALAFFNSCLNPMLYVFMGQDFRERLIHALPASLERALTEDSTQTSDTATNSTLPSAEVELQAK

Cytochrome P450 3A4 = Cytochrome P450 3A4 (Homo sapiens, UniProt P08684);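 note: CYP3A4 tested as one member of a cytochrome P450 panel screen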
Cytochrome P450 3A4, sequence (P08684 whole entry): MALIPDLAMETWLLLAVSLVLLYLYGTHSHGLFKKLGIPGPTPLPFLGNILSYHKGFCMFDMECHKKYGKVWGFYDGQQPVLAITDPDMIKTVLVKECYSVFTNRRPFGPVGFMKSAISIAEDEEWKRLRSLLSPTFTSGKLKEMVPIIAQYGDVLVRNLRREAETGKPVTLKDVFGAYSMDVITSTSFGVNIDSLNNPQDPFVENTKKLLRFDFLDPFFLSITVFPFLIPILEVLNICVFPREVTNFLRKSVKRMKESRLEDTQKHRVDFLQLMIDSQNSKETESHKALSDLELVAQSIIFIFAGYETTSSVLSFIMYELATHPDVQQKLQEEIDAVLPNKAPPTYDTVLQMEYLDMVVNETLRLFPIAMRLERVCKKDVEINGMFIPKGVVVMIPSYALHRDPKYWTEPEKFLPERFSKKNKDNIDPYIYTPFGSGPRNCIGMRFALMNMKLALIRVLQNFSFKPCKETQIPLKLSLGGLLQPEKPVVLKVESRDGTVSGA

[1] = molecular target: Peroxisome proliferator-activated receptor gamma/Nuclear receptor coactivator 1 (Homo sapiens, UniProt P37231); test: (§1) TR-FRET dose response biochemical High Throughput Screening assay for agonists of the steroid receptor coactivator 1 (SRC-1) recruitment by the peroxisome proliferator-activated receptor gamma (PPAR gamma): non-selective agonists. [Related pubchem assays (depositor defined):AID1300, AID1808, AID504735, AID631]; assay type: protein assay
Peroxisome proliferator-activated receptor gamma/Nuclear receptor coactivator 1, sequence (P37231 whole entry): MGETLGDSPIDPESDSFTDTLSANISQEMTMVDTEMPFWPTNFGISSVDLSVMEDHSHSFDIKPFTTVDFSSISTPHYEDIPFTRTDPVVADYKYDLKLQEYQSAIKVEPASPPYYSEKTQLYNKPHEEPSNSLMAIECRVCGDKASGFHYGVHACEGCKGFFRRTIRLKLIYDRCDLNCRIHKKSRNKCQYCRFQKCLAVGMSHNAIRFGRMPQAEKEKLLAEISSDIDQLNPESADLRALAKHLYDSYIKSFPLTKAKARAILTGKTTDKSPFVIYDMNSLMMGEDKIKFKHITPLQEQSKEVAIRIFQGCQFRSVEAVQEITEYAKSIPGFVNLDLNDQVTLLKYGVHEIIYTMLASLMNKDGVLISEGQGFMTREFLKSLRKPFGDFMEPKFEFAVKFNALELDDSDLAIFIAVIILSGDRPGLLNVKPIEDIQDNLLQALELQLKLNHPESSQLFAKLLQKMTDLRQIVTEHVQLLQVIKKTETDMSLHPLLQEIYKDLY
Peroxisome proliferator-activated receptor gamma/Nuclear receptor coactivator 1, sequence (Q15788 whole entry, further chain): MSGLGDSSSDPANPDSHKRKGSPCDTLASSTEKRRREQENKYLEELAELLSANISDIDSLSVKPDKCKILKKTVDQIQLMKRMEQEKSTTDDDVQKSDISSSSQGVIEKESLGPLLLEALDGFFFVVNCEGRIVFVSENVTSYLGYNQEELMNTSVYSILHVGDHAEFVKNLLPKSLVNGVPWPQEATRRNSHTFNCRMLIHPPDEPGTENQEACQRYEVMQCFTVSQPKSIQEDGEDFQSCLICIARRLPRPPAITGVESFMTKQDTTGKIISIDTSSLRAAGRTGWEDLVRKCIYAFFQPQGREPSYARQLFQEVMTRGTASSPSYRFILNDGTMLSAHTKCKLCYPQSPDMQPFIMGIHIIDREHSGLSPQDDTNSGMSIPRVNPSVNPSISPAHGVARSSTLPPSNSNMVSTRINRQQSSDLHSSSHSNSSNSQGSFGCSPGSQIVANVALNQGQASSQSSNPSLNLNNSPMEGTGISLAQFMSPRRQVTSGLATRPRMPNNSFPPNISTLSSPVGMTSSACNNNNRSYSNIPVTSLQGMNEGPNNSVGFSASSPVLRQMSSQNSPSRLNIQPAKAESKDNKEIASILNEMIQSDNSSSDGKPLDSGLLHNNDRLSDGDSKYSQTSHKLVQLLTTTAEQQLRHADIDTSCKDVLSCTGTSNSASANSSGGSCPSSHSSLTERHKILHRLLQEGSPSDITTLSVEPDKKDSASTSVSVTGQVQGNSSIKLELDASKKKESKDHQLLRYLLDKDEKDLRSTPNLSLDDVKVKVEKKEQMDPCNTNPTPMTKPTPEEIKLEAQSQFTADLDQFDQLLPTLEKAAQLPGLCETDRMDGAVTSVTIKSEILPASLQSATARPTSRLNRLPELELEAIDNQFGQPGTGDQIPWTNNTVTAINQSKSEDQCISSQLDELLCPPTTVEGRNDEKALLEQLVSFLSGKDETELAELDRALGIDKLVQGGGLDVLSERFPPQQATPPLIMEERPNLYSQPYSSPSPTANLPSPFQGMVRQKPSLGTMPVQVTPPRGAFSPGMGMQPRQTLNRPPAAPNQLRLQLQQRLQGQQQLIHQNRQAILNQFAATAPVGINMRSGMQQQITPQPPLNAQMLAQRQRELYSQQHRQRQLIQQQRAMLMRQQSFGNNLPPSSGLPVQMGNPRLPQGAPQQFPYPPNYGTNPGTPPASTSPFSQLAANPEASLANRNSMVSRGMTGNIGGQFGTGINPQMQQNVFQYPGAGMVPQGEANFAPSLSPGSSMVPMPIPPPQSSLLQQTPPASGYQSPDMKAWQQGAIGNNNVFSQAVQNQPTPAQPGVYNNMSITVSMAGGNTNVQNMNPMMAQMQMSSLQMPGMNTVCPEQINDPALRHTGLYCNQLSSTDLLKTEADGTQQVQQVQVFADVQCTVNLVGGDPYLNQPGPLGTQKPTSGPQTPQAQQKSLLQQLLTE

[2] = molecular target: Peroxisome proliferator-activated receptor gamma/Nuclear receptor coactivator 3 (Homo sapiens, UniProt P37231); test: as §1, with “3 (SRC-3)” for “1 (SRC-1)”, “assays: 1301 (Confirmation screen.), 1048 (Primary screen.)]” for “assays (depositor defined):AID1300, AID1808, AID504735, AID631]”; assay type: functional
[3] = molecular target: Peroxisome proliferator-activated receptor gamma/Nuclear receptor coactivator 2 (Homo sapiens, UniProt P37231); test: TR-FRET dose response biochemical High Throughput Screening assay for agonists of the steroid receptor coactivator 2 (SRC-2) recruitment by the peroxisome proliferator-activated receptor gamma (PPAR gamma): non-selective agonists. [Related pubchem assays: 1297, 1032 ]; assay type: functional
Peroxisome proliferator-activated receptor gamma/Nuclear receptor coactivator 2, sequence (P37231 whole entry, the tested form may be a part): as the sequence (P37231 whole entry) above
Peroxisome proliferator-activated receptor gamma/Nuclear receptor coactivator 2, sequence (Q15596 whole entry, further chain, the tested form may be a part): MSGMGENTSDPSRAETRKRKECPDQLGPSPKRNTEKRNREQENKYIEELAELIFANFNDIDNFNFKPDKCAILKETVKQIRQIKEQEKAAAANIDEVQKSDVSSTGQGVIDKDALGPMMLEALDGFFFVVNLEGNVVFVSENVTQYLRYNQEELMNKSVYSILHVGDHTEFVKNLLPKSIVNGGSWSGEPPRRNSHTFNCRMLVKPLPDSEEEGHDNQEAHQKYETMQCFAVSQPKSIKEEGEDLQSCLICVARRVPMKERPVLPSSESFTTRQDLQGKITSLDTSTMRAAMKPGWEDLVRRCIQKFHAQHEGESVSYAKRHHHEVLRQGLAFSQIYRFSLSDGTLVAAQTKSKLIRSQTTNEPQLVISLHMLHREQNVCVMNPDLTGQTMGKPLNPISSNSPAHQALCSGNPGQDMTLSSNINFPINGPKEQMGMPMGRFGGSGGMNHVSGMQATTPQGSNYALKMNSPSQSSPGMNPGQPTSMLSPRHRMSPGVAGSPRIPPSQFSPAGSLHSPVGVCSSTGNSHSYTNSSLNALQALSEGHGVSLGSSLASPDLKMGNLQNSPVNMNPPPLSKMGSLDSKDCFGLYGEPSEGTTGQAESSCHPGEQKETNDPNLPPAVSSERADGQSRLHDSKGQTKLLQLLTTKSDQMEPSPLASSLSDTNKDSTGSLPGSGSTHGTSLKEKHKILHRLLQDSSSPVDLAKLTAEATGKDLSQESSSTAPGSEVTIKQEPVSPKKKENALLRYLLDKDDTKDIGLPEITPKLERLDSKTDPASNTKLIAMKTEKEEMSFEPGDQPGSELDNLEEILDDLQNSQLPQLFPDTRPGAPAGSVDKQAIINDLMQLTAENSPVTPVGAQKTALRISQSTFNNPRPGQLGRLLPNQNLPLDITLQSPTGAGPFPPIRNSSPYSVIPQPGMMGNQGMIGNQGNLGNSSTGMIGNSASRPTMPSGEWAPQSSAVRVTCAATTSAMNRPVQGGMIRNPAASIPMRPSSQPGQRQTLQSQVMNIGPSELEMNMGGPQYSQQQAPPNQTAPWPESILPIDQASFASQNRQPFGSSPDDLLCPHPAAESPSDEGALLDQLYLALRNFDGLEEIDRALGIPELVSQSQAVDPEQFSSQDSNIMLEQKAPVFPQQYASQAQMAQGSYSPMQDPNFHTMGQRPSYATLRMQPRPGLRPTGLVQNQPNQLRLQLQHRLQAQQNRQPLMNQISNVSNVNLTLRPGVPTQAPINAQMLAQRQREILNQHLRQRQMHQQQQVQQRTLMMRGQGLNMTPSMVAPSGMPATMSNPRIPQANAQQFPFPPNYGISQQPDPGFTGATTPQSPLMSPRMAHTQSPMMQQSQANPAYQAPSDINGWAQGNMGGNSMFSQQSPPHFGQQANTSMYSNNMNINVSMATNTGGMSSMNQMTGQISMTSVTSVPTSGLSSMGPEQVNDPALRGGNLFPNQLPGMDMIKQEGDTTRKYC

[4] = molecular target: T3, E3 ubiquitin-protein ligase XIAP (Homo sapiens, UniProt P98170); test: SAR analysis of Antagonists of XIAP-Bir3 domain of IAP-family anti-apoptotic proteins. [Related pubchem assays (depositor defined):AID1018, AID1449, AID1513, AID1514, AID1638]
T3 sequence (P98170 whole entry, the tested form may be a part): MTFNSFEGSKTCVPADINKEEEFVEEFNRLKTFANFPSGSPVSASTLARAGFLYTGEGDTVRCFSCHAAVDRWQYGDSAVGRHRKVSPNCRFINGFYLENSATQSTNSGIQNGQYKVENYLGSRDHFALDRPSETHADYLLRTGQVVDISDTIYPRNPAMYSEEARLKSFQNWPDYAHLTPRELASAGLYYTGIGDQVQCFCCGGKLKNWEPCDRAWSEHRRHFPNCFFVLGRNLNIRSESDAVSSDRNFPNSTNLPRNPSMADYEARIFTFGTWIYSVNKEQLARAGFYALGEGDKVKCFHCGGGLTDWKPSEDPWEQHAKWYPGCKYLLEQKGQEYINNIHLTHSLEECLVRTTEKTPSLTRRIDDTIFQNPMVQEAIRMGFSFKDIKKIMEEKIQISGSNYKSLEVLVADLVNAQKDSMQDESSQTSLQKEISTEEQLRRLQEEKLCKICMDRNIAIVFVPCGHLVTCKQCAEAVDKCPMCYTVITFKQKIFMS

[5] = molecular target: T3, E3 ubiquitin-protein ligase XIAP; test: SAR analysis of Antagonists of IAP-family anti-apoptotic proteins. [Related pubchem assays (depositor defined):AID1018, AID1449, AID1513, AID1514, AID1638]
T-cell = test: loss of vesicle association with mouse CD8+ T cells – mouse 2C CD8+ T cells, flow cytometry, dose response (AID 485284); assay type: functional
[6] = molecular target: T4, Short transient receptor potential channel 4 (Mus musculus, UniProt Q9QUQ5); test: potentiation of DAMGO-evoked TRPC4 calcium signal – cell-based, HEK293 TRPC4/mu-opioid, Fluo-4 calcium, EC20 DAMGO, dose response (AID 434941); assay type: functional
T4 sequence (Q9QUQ5 whole entry): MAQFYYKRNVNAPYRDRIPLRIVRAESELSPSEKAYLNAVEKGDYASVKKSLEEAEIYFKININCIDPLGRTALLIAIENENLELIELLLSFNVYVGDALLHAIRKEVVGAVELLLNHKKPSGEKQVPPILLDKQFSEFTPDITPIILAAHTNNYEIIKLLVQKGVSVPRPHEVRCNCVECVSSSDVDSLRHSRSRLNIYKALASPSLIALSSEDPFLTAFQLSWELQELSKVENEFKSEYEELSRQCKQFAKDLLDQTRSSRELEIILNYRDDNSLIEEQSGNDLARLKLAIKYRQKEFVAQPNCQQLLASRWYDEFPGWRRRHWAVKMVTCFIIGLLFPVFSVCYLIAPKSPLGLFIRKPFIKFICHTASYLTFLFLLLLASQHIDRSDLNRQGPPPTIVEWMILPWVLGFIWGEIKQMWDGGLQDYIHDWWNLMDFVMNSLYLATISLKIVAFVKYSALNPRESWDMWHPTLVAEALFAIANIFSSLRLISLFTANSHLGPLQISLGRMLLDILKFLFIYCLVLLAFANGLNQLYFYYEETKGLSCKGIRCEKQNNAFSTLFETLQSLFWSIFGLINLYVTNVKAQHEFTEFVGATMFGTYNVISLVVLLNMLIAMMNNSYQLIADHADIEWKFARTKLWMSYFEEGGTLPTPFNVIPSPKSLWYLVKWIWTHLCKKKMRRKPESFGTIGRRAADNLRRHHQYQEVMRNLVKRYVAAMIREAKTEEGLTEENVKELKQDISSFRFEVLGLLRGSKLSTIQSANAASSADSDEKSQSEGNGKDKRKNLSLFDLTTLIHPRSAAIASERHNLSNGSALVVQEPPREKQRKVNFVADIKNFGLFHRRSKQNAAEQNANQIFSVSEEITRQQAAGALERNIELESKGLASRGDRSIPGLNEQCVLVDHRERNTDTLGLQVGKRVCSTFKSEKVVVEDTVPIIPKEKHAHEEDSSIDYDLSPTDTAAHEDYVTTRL

How did the EC50 (Hexokinase HKDC1) turn out when `COCc1cc(C2C(C(=O)c3ccco3)=C(O)C(=O)N2CCOCCO)ccc1O` (stereo not given) was run?
The EC50 was > 80 µM (inactive).

What about the Ki (fMet-Leu-Phe receptor) of the same compound?
Its Ki is 29.7 µM (inactive).

With `CCOC(=O)CSc1cc(=O)n(C)c2cc(Cl)ccc12` as the compound, how does the AC50 (Cytochrome P450 3A4) read?
Its AC50 is 22.4 µM (inconclusive).

And the EC50 [1]?
Its EC50 is > 79.4 µM (inactive).

What about the EC50 [2] of the same compound?
The EC50 was > 79.4 µM (not active).

And the EC50 [3]?
The EC50 was > 79.4 µM (not active).

Which results are given for `CC[C@H](NC(=O)[C@H](C)NC)C(=O)N1CCC[C@H]1C(=O)NC1CCCc2ccccc21` (stereo not given in full)?
IC50 [4]: 530 nM (active) and 980 nM (active); IC50 [5]: 9.7 µM (active) and 13.7 µM (active)

How did the EC50 (T-cell) turn out when `CCCCn1nc(C(=O)N2CCN(S(=O)(=O)c3ccccc3)CC2)c2ccccc2c1=O` was run?
Its EC50 is 10.3 µM (active).

For `O=C(Nc1ccccc1)C1=C[C@H](C2CCCCC2)C[C@H](OCc2ccc(CO)cc2)O1`, which EC50 [6] is on record?
Its EC50 is 2.99 µM (active).
